# Measured values reported in patent publication US20120130144A1, “TREATMENT OF LUNG CANCER WITH A NITROBENZAMIDE COMPOUND IN COMBINATION WITH A GROWTH FACTOR INHIBITOR” (BiPar Sciences, Inc., priority 2009, published 2012).
# “Also recorded” adds a separate entry of the source. Where two headings read alike, the source gives them in different places.
# Legend:
# HCC827 cells [1] = assay: FACS-based cell cycle analysis (PI/BrdU), Example 1; conditions: GFT 0 nM, 72 hours; for G1 / G2/M / S: percentage of cells
# Procedure: 50 μl of BrdU (Sigma Chemical Co., St. Louis, Mo.) stock solution (1 mM) is added to achieve final concentration of 10 μM BrdU. Then cells are incubated for 30 min at 37° C. and fixed in ice-cold 70% ethanol and stored at 4° C. overnight. Fixed cells are centrifuged and washed once in 2 ml PBS, then resuspended in 0.7 ml of denaturation solution (0.2 mg/ml pepsin in 2 N HCl) for 15 min at 37° C. in the dark, then 1.04 ml 1M Tris buffer (Trizma base, Sigma Chemical Co.) is added to terminate the hydrolysis. Cells are washed in 2 ml PBS and resuspended in 100-μl (1:100 dilution) of anti-BrdU antibody (DakoCytomation, Carpinteria, Calif.) in TBFP permeable buffer (0.5% Tween-20, 1% bovine serum albumin and 1% fetal bovine serum in PBS), incubated for 25 min at room temperature in the dark and washed in 2 ml PBS. The primary antibody-labeled cells are resuspended in 100 μl ALEXA FLUOR® F(ab′)2 fragment of goat anti-mouse IgG (H+L) (1:200 dilution, 2 mg/mL, Molecular Probes, Eugene, Oreg.) in TBFP buffer and incubated for 25 min at room temperature in the dark and washed in 2 ml PBS, then resuspended in 0.5 ml ice-cold PBS containing 1 μg/ml 4′,6-diamidino-2-phenylindole (DAPI) for at least 30 min. All cell samples are analyzed with a BD LSR II (BD Biosciences, San Jose, Calif.). All flow cytometry analyses are carried out using triplicate samples containing at least 30,000 cells each (typical results of independent experiments are shown).
# HCC827 cells [2] = assay: Viable cell count / growth of HCC827 cells, Example 1; format: cell-based
# Procedure: Lung adenocarcinoma HCC827 cells are cultured in Dulbecco Modified Eagle Medium with 10% fetal bovine serum. […] Cells are plated at a seeding density 10^5 per P100 or at 10^4 per P60 in growth media and incubated 12-18 h at 37° C., 5% CO2. BA and the EGFR inhibitor, IRESSA, are added as a single dose for 72 hours. DMSO is used as a control. Cells are irradiated with 3Gy and 5Gy gamma-irradiation using γ-Irradiator Gammacell 40 Exactor (MDS Nordion, Canada). Following treatment, cells are analyzed with BrdU ELISA assay (Roche Applied Science), FACS based cell cycle assay or TUNEL.
# After the addition of drugs, irradiation and incubation, cells are taken for counting and PI (Propidium Iodide) exclusion assay. One part of the cells is centrifuged and resuspended in 0.5 ml ice-cold PBS containing 5 μg/ml of PI. The other part of the cells is fixed in ice-cold 70% ethanol and stored in a freezer overnight. For cell cycle analysis, cells are stained with propidium iodide (PI) as described hereinabove. Cellular DNA content is determined by flow cytometry using BD LSRII FACS, and the percentages of cells in G1, S or G2/M are determined using ModFit software.
# [3] = system: HCC827 non-small cell lung carcinoma cells; assay: FACS cell cycle analysis by DNA content and BrdU incorporation, Example 1A; format: cell-based; design: key to Sub-G1 / G1: % of cells in cell cycle phase; conditions: for BrdU (−) S / G1 / G2/M / S / Sub-G1: HCC827 (NSCLC), GFT 0 nM, 72 hours
# Procedure: (§1) HCC827 non-small cell lung carcinoma cells were obtained from ATCC, Rockville, Md. […] Central dose rate of approximately 1.30 Gy/minute (130 rad/minute).
# (§2) After the addition of the compounds as described above, irradiation and incubation, cells were trypsinized and aliquots of the samples were taken for counting and PI (Propidium Iodide) exclusion assay. One part of the cells was centrifuged and resuspended in 0.5 ml ice-cold PBS containing 5 ug/ml of PI. The other part of the cells was fixed in ice-cold 70% ethanol and stored in a freezer overnight. For cell cycle analysis, cells were stained with propidium iodide (PI) by standard procedures. Cellular DNA content was determined by flow cytometry using BD LSRII FACS, and the percentages of cells in G1, S or G2/M were determined using ModFit software.
# All cell samples were analyzed as described in [5,6] using a BD LSR II or BD Aria (BD Biosciences, San Jose, Calif.). All flow cytometry analyses were carried out using triplicate samples containing at least 30,000 cells each and the final percentages of the cell cycle distribution were normalized to singlets viable cell population, excluding cell debris and polyploid cells according established procedure.
# 50 μl of BrdU (Sigma Chemical Co., St. Louis, Mo.) stock solution (1 mM) was added to achieve final concentration of 10 μM BrdU. Then cells were incubated for 30 min at 37° C. and fixed in ice-cold 70% ethanol and stored at 4° C. overnight. Fixed cells were centrifuged and washed once in 2 ml PBS, then resuspended in 0.7 ml of denaturation solution (0.2 mg/ml pepsin in 2 N HCl) for 15 min at 37° C. in the dark, then 1.04 ml 1M Tris buffer (Trizma base, Sigma Chemical Co.) was added to terminate the hydrolysis. Cells were washed in 2 ml PBS and resuspended in 100-μ1(1:100 dilution) of anti-BrdU antibody (DakoCytomation, Carpinteria, Calif.) in TBFP permeable buffer (0.5% Tween-20, 1% bovine serum albumin and 1% fetal bovine serum in PBS), incubated for 25 min at room temperature in the dark and washed in 2 ml PBS. The primary antibody-labeled cells were resuspended in 100 μl ALEXA FLUOR® F(ab)2, fragment of goat anti-mouse IgG (H+L) (1:200 dilution, 2 mg/mL, Molecular Probes, Eugene, Oreg.) in TBFP buffer and incubated for 25 min at room temperature in the dark and washed in 2 ml PBS, then resuspended in 0.5 ml ice-cold PBS containing 1 μg/ml 4′,6-diamidino-2-phenylindole (DAPI) for at least 30 min [3, 6].
# [4] = in vivo; cited from earlier work
# [5] = system: HCC827 non-small cell lung carcinoma cells; assay: TUNEL apoptosis detection (FACS), Example 1A; format: cell-based; conditions: for TUNEL (+): HCC827 (NSCLC), GFT 0 nM, 72 hours
# Source text: as §1
# The cells were labeled for apoptosis detection with the “In Situ Cell Death Detection Kit, Fluorescein” (Roche Diagnostics Corporation, Roche Applied Science, Indianapolis, Ind.) and analyzed based on the modified protocol from Dr. Darzynkiewicz laboratory. Briefly, fixed cells were centrifuged and washed once in phosphate-buffered saline (PBS) containing 1% bovine serum albumin (BSA), then resuspended in 2 ml permeabilization buffer (0.1% Triton X-100 and 0.1% sodium citrate in PBS) for 25 min at room temperature and washed twice in 0.2 ml PBS/1% BSA. The cells were resuspended in 50 μl TUNEL reaction mixture (TdT enzyme and labeling solution) and incubated for 60 min at 37° C. in a humidified dark atmosphere in an incubator. The labeled cells were washed once in PBS/1% BSA, then resuspended in 0.5 ml ice-cold PBS containing 1 μg/ml 4′,6-diamidino-2-phenylindole (DAPI) for at least 30 min. All cell samples were analyzed with a BD LSR II (BD Biosciences, San Jose, Calif.) and the final percentages of the cell cycle distribution were normalized to singlets viable cell population, excluding cell debris and polyploid cells according established procedure. All flow cytometry analyses were carried out using triplicate samples containing at least 30,000 cells each (typical results of 3 or more independent experiments are shown).
# HCC827 cells [6] = assay: TUNEL apoptosis assay (FACS), Example 1; format: cell-based; conditions: GFT 0 nM, 72 hours
# Procedure: Lung adenocarcinoma HCC827 cells are cultured in Dulbecco Modified Eagle Medium with 10% fetal bovine serum. […] Cells are plated at a seeding density 10^5 per P100 or at 10^4 per P60 in growth media and incubated 12-18 h at 37° C., 5% CO2. BA and the EGFR inhibitor, IRESSA, are added as a single dose for 72 hours. DMSO is used as a control. […] Following treatment, cells are analyzed with BrdU ELISA assay (Roche Applied Science), FACS based cell cycle assay or TUNEL.
# To detect apoptosis, the cells are labeled with the “In Situ Cell Death Detection Kit, Fluorescein” (Roche Diagnostics Corporation, Roche Applied Science, Indianapolis, Ind.). Briefly, fixed cells are centrifuged and washed once in phosphate-buffered saline (PBS) containing 1% bovine serum albumin (BSA), then resuspended in 2 ml permeabilization buffer (0.1% Triton X-100 and 0.1% sodium citrate in PBS) for 25 min at room temperature and washed twice in 0.2 ml PBS/1% BSA. The cells are resuspended in 50 μl TUNEL reaction mixture (TdT enzyme and labeling solution) and incubated for 60 min at 37° C. in a humidified dark atmosphere in an incubator. The labeled cells are washed once in PBS/1% BSA, then resuspended in 0.5 ml ice-cold PBS containing 1 μg/ml 4′,6-diamidino-2-phenylindole (DAPI) for at least 30 min. All cell samples are analyzed with a BD LSR II (BD Biosciences, San Jose, Calif.). […]
# [7] = system: HCC827 non-small cell lung carcinoma cells; assay: Number of vital (proliferating) cells relative to control, Example 1A; format: cell-based; conditions: for Live Cell: HCC827 (NSCLC), GFT 0 nM, 72 hours, percentage relative to control
# Procedure: as §1
# Following treatment, the number of vital cells was measured. Percentage of the vital (proliferating) cells under different treatments was calculated relative to the control (untreated) cells.
# as §2
# NSCLC tumors = conditions: after failure of chemotherapy, cited from earlier work
# HCC827 cells [8] = assay: CellTiter 96 Aqueous Cell Proliferation Assay (MTS), Example 2; format: cell-based; conditions: in combination with BA (100 μM and 50 μM), 72 hours
# [9] = system: locally advanced or metastatic pancreatic cancer; conditions: cited from earlier work
# chemo-refractory NSCLC = conditions: phase II, monotherapy, 57 evaluable patients; cited from earlier work
# NSCLC = conditions: cited from earlier work
# VEGF = conditions: human, in vivo; cited from earlier work
# [10] = Homo sapiens, HCC827, 72 h, read-out: Viable Cell
# [11] = gefitinib-treated HCC827 cells, FIG. 2c
# [12] = Caucasian patients with NSCLC tumors
# [13] = combination treatment arm (TARCEVA with gemcitabine)
# [14] = phase III versus placebo, NSCLC after failed prior chemotherapy
# Chain of VEGF (P15692 207-311 limits assumed): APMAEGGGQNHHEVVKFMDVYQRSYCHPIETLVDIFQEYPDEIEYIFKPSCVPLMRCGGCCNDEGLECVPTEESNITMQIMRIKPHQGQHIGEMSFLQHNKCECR
compound,measurement,setting,value
"NC(=O)c1ccc(I)c([N+](=O)[O-])c1 [BA, 4-iodo-3-nitrobenzamide]",Sub-G1,HCC827 cells [1]; BA 50 uM,2.4
same,G1,HCC827 cells [1]; BA 50 uM,46.3
same,G2/M,HCC827 cells [1]; BA 50 uM,8.8
same,S,HCC827 cells [1]; BA 50 uM,40.6
same,Sub-G1,HCC827 cells [1]; BA 100 uM,15.8
same,G1,HCC827 cells [1]; BA 100 uM,43.8
same,G2/M,HCC827 cells [1]; BA 100 uM,12.5
same,S,HCC827 cells [1]; BA 100 uM,19.9
same,effect of BA on the activity of gefitinib (IRESSA),"HCC827 cells [2]; HCC827 cell line, FIG. 1","potentiates the activity of gefitinib; also recorded: potentiates the activity of the EGFR inhibitor, IRESSA"
same,viability at 50 µM,HCC827 cells [2]; [10],65%
same,viability at 100 µM,HCC827 cells [2]; [10],25%
same,BrdU (−) S,[3]; BA 50 uM,1.95
same,G1,[3]; BA 50 uM,46.26
same,G2/M,[3]; BA 50 uM,8.82
same,S,[3]; BA 50 uM,40.62
same,Sub-G1,[3]; BA 50 uM,2.36
same,BrdU (−) S,[3]; BA 100 uM,8.05
same,G1,[3]; BA 100 uM,43.76
same,G2/M,[3]; BA 100 uM,12.49
same,S,[3]; BA 100 uM,19.92
same,Sub-G1,[3]; BA 100 uM,15.79
same,cell cycle arrest,[3]; gefitinib treated HCC827 cells,enhanced cell cycle arrest
same,number of cells in G1 and S phases of cell cycle,[3]; [11],reduced number of cells in G1 and S phases
same,number of dead cells (sub-G1),[3]; [11],induced number of dead cells (sub-G1)
same,crossing of the blood-brain barrier,[4],known to cross the blood-brain barrier
same,distribution into tissues,[4],"distributes rapidly and widely into tissues, including the brain and cerebrospinal fluid (CSF)"
same,TUNEL (+),[5]; BA 50 uM,5.7
same,TUNEL (+),[5]; BA 100 uM,32.8
same,apoptosis,[5]; gefitinib treated HCC827 cells,induced apoptosis
same,TUNEL (+),HCC827 cells [6]; BA 50 uM,5.7
same,TUNEL (+),HCC827 cells [6]; BA 100 uM,32.8
same,Live Cell,[7]; BA 50 uM,65
same,Live Cell,[7]; BA 100 uM,25
same,effect of BA on antiproliferative effect of growth factor inhibitors,"[7]; HCC827 cells, FIG. 2a-2c",potentiates antiproliferative effect of growth factor inhibitors
same,effect of BA on antitumor activity of gefitinib,[7]; non-small lung carcinoma cells,potentiates antitumor activity of gefitinib
"NC(=O)c1ccc(I)c(N=O)c1 [BNO, 4-iodo-3-nitrosobenzamide]",BrdU (−) S,[3]; BNO 25 uM,1.30
same,G1,[3]; BNO 25 uM,61.10
same,G2/M,[3]; BNO 25 uM,7.20
same,S,[3]; BNO 25 uM,29.30
same,Sub-G1,[3]; BNO 25 uM,1.10
same,BrdU (−) S,[3]; BNO 50 uM,3.50
same,G1,[3]; BNO 50 uM,38.74
same,G2/M,[3]; BNO 50 uM,11.41
same,S,[3]; BNO 50 uM,44.24
same,Sub-G1,[3]; BNO 50 uM,2.10
same,TUNEL (+),[5]; BNO 25 uM,2.9
same,TUNEL (+),[5]; BNO 50 uM,7.7
same,Live Cell,[7]; BNO 25 uM,76
same,Live Cell,[7]; BNO 50 uM,40
"COc1cc2ncnc(Nc3ccc(F)c(Cl)c3)c2cc1OCCCN1CCOCC1 [GFT, gefitinib]",major objective responses,NSCLC tumors; [12],approximately 10%
same,major objective responses,NSCLC tumors; Japanese patients with NSCLC tumors,25-30%
"COC(=O)[C@@]1(O)C[C@H]2O[C@]1(C)n1c3ccccc3c3c4c(c5c6ccccc6n2c5c31)C(=O)NC4 [K252a, (9S-(9α,10β,12α))-2,3,9,10,11,12-hexahydro-10-hydroxy-10-(methoxycarbonyl)-9-methyl-9,12-epoxy-1H-diindolo[1,2,3-fg:3′,2′,1′-kl]pyrrolo[3,4-i][1,6]benzodiazocin-1-one]",effect of BA on antiproliferative effects of growth factor receptors inhibitors,HCC827 cells [8],potentiation of antiproliferative effects
"COc1cc([C@@H]2c3cc4c(cc3[C@H](O)[C@H]3COC(=O)[C@@H]23)OCO4)cc(OC)c1OC [PPP, (5R,5aS,8aR,9R)-5,8,8a,9-Tetrahydro-9-hydroxy-5-(3,4,5-trimethoxyphenyl)-furo[3′,′: 6,7]naphtho[2,3-d]-1,3-dio xol-6(5aH)-one]",effect of BA on antiproliferative effects of growth factor receptors inhibitors,HCC827 cells [8],potentiation of antiproliferative effects
"C#Cc1cccc(Nc2ncnc3cc(OCCOC)c(OCCOC)cc23)c1 [TARCEVA, erlotinib]",Median survival,[9]; [13],6.4 months
same,one-year survival,[9]; [13],25.6%
same,improvement in overall survival,"[9]; in combination with gemcitabine, compared with gemcitabine alone",23.5%
same,major objective responses,NSCLC tumors; [12],approximately 10%
same,patients achieving disease stabilisation,chemo-refractory NSCLC,51%
same,patients surviving for at least 12 months,chemo-refractory NSCLC,40%
same,patients affected by rash,NSCLC; NSCLC primary registration trial,75%
same,tolerability,NSCLC; clinical trials,generally well tolerated
same,improvement in median survival,NSCLC; [14],42%
same,improvement in one-year survival,NSCLC; [14],45%
Nc1ccn([C@@H]2O[C@H](CO)[C@@H](O)C2(F)F)c(=O)n1 [gemcitabine],Median survival,[9]; gemcitabine plus placebo,5.9 months
same,one-year survival,[9]; gemcitabine plus placebo,19.7%
"bevacizumab: first anti-VEGF drug, a monoclonal antibody",patients who benefit from therapy,VEGF,10-15%
